Results on 15 molecules are retold here after PubChem BioAssay (NCI).

The structures appear in SMILES notation.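 These data come from cells grown in 96-well plates and exposed to compound for 48 hours at five concentrations. GI50 = concentration required for 50% inhibition of growth. TGI is the concentration that stops growth completely.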

Experiment in all cases: inhibition of tumour cell growth, NCI panel, 48 h
Assay [1] has as its system HL-60(TB) leukemia.
Assay [2] concerns NCI-H226 lung.
For assay [3], the system named is OVCAR-5 ovarian.
Assay [4] deals with RXF 393 renal.
Assay [5] concerns SK-MEL-5 melanoma.
For assay [6], the system named is SN12C renal.
The subject of assay [7] is SNB-75 CNS.
Assay [8] concerns SW-620 colon.
In assay [9] the test system is UACC-257 melanoma.
Assay [10] deals with UACC-62 melanoma.

In the case of `CC1OC(OC2C[C@](O)(C(=O)CBr)Cc3c(O)c4c(c(O)c32)C(=O)c2ccccc2C4=O)C(F)C(O)C1O` (some centres not stated), the TGI in assay [1] was 3.22 µM; in assay [2] it was 36.4 µM; in assay [3], more than 59.7 µM; in assay [4], 35.6 µM; in assay [5], 24.4 µM; in assay [6], more than 73.3 µM. Also, the TGI is 56.2 µM in assay [7], more than 45.8 µM in [8], 39.6 µM in assay [9] and 34.5 µM in assay [10].

As for `CCOC(=O)/C=C/c1c[nH]c(=O)[nH]c1=O`, the TGI in assay [1], in [2], in assay [3], in [4], in [5] and in [6] was more than 75 µM in each case. Moreover, the TGI in [7], in assay [8], in [9] and in assay [10] was more than 75 µM throughout.

With `CCCCCCCCCC[N+](C)(C)C`, the GI50 in assay [1] is 0.874 µM; in assay [2], 2.37 µM; in [3], 1.05 µM; in assay [5], 1.73 µM; in assay [6], 2.95 µM; in assay [7], 1.26 µM. Moreover, the GI50 in assay [8] was 2.13 µM; in assay [9], 2.3 µM; in assay [10] it was 1.69 µM. Also, the TGI came to 2.59 µM in [1]; 8.97 µM in assay [2]; 3.89 µM in [3]; 3.26 µM in assay [5]; 8.66 µM in assay [6]; 3.69 µM in [7]. For the same molecule, the TGI in assay [8] was found to be 10.1 µM; in assay [9] it was 7.07 µM; in assay [10] it was 4.59 µM.

Turning to `CCCCCCC(=O)c1ccc2ccccc2c1O`, the TGI in assay [1] was more than 100 µM; in [2] it was more than 100 µM; in assay [4], 74.4 µM; in [5], more than 100 µM; in [7], more than 100 µM; in assay [8], more than 100 µM. The TGI in assay [9] and in assay [10] was more than 100 µM each time.

For `N[C@@H](Cc1ccc2oc3cc(=O)c4ccccc4c-3nc2c1)C(=O)O`, the TGI is more than 100 µM in assay [1]; more than 100 µM in assay [2]; more than 100 µM in assay [3]; more than 100 µM in assay [4]; 24.1 µM in assay [5]; more than 100 µM in assay [6]. In addition, the TGI in assay [7] was more than 100 µM; in assay [8] it was more than 100 µM; in [9], 42.3 µM; in [10], 57.9 µM.

Consider `CSS(C)(=O)=O`, for which the TGI was 58.7 µM in [1]; 43.5 µM in [2]; 49.1 µM in assay [3]; 59.6 µM in assay [4]; more than 100 µM in assay [5]; 45.3 µM in assay [6]. The TGI in assay [7] is 94.1 µM; in assay [8], more than 100 µM; in assay [9], 45.8 µM; in assay [10] it was 42.3 µM.

With `COc1ccc2c(c1)C=C(C(C)(C)C)NS2(=O)=O`, the TGI in assay [1], in assay [2], in [3], in assay [4], in [5] and in assay [6] was more than 100 µM each time. The TGI in assay [7], in assay [8], in assay [9] and in assay [10] was more than 100 µM each time.

`CC(c1ccccc1)C(O)S(=O)(=O)O` (configuration not stated): the TGI in [2], in [3], in assay [4], in [6], in assay [7] and in [8] was more than 100 µM in each case. The TGI in assay [9] and in assay [10] was more than 100 µM throughout.

With `C=CCOC1OC(CS(=O)(=O)O)C(OC(C)=O)C(OC(C)=O)C1OC(C)=O` (configuration not stated), the TGI in [1], in [2], in assay [3], in assay [4], in [5] and in assay [6] was more than 100 µM throughout. Also, the TGI in [7], in assay [8], in assay [9] and in assay [10] was more than 100 µM each time.

For `COc1cc2c3cc1Oc1c(OC)c(OC)cc4c1C(Cc1ccc(O)c(c1)-c1cc(ccc1OC)CC3N(C)CC2)N(C)CC4` (configuration not stated), the TGI in assay [1] was 15.4 µM; in assay [2], more than 100 µM; in assay [3] it was more than 100 µM; in [4], 6.7 µM; in assay [5], 40.5 µM; in [6], 42.7 µM. The TGI was 39.6 µM in assay [7], more than 100 µM in assay [8], 59.3 µM in [9] and 57.2 µM in assay [10].

Turning to `COc1ccc(-c2c3c(nc4[nH]c(=S)[nH]c(=S)c24)CCCC3)cc1OC`, the TGI was more than 100 µM in assay [1]; more than 100 µM in assay [3]; 57.9 µM in assay [4]; 32.6 µM in [5]; 86.2 µM in assay [6]; 51.2 µM in assay [7]. Also, the figures for the TGI in assay [8], in [9] and in [10] were more than 100 µM, more than 100 µM and 37.5 µM, respectively.

With `c1ccc(N2N=C3N(c4ccccc4)C2N3c2ccccc2)cc1`, the TGI in [1] is more than 100 µM; in assay [3] it was more than 100 µM; in assay [4], more than 100 µM; in assay [5], 63.4 µM; in assay [6], more than 100 µM; in assay [7], 64.5 µM. Besides, the TGI was more than 100 µM in [8], 55 µM in [9] and 80.2 µM in assay [10].

Take `COc1ccc(OCC(C)(C)O)cc1`: the TGI in [1], in [2], in [3], in assay [4], in [5] and in assay [6] was more than 100 µM throughout. Moreover, the TGI in assay [7] is more than 86.9 µM; in [8] it was more than 100 µM; in assay [9], more than 100 µM; in assay [10], more than 100 µM.

Consider `CC(C)(C)C(=O)CC(=O)C(F)(F)C(F)(F)C(F)(F)F.[Ag]`, for which the TGI in [1] was 40.8 µM; in assay [2], 60.2 µM; in [3], more than 100 µM; in assay [4], 32.4 µM; in [5] it was 21.3 µM; in assay [6] it was 27.6 µM. Further, the TGI was determined as 34.6 µM in assay [7], 47 µM in assay [8], 30.1 µM in assay [9] and 32 µM in assay [10].

As to `COc1ccc2c(c1)c(=O)c1c(NCCCN(C)C)ccc3ncn2c31`, the TGI in [1] amounted to 25.1 µM; in [2], 22.2 µM; in assay [3], 25.5 µM; in [4], 2.28 µM; in assay [5], 24.3 µM; in [6], 18.9 µM. Besides, the TGI in assay [7] is 19.8 µM; in assay [8], 15.3 µM; in [9], 27 µM; in assay [10] it was 28.7 µM.
